Consider three molecules from publication PMC3751577, “Three-stage biochemical selection: cloning of prototype class IIS/IIC/IIG restriction endonuclease-methyltransferase TsoI from the thermophile Thermus scotoductus” (BMC Molecular Biology, 2013).

The target of assay [1] is T1, TsoI (Thermus scotoductus, UniProt T1RQY5).
T1 construct: gene tsoIRM; native (wt) full-length enzyme purified to homogeneity from T. scotoductus; monomer
T1 sequence (T1RQY5 1-1116): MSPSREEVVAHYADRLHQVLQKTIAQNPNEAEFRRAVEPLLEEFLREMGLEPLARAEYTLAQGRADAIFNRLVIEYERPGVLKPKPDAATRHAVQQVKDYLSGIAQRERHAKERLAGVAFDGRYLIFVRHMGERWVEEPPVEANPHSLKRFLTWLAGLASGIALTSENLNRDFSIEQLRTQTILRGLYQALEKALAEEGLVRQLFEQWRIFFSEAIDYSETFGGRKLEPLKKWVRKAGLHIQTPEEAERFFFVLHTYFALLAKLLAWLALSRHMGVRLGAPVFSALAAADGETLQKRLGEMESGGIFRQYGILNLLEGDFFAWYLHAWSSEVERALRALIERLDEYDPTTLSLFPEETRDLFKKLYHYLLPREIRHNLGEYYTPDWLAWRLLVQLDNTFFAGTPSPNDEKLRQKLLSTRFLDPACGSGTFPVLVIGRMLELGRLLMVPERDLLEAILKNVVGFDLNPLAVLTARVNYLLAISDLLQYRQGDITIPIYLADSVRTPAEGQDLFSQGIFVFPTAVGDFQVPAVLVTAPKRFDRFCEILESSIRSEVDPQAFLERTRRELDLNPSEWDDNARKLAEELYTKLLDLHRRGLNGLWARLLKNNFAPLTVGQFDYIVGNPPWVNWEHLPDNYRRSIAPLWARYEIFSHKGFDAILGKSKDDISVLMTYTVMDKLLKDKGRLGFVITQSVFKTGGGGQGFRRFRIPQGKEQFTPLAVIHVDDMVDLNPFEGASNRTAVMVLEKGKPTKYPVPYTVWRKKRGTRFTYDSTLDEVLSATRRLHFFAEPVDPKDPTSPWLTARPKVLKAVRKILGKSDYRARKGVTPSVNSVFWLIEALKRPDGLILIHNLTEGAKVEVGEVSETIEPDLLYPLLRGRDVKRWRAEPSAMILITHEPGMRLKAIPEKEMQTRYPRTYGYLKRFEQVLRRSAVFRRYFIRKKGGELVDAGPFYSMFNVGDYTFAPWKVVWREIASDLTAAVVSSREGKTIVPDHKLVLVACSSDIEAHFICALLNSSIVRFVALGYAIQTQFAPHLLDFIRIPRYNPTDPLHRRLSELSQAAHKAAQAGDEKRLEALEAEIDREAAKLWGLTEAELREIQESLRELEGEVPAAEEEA
Nature of the assay: DNA cleavage assays on lambda DNA and single-site PCR substrate, agarose gel. The following applies: activator, putative allosteric; weak stimulation of REase; 50 uM effector; 10 mM MgCl2, pH 7.5, 55°C, 30 min or 16 h. Format: biochemical.

Assay [2] has as its target T1, TsoI. In words: DNA cleavage assay on lambda DNA, agarose gel. Format: biochemical. As to conditions: activator, putative allosteric; weak stimulation of REase; 50 uM effector; 10 mM MgCl2, pH 7.5, 55°C, 30 min.

`C[S+](CC[C@H](N)C(=O)O)C[C@H]1O[C@@H](n2cnc3c(N)ncnc32)[C@H](O)[C@@H]1O` (stereo partly drawn) [SAM]: the “DNA cleavage assays on lambda DNA and single-site PCR substrate, agarose gel” value on TsoI [1] is “activation of REase function by SAM, SIN and SAH is weak, but detectable”.
With `Nc1ncnc2c1ncn2[C@@H]1O[C@H](C[C@@H](N)CC[C@H](N)C(=O)O)[C@@H](O)[C@H]1O` [SIN], the “DNA cleavage assay on lambda DNA, agarose gel” value on TsoI [2] was “activation of REase function by SAM, SIN and SAH is weak, but detectable”.
Same read-out and setting: as for `Nc1ncnc2c1ncn2[C@@H]1O[C@H](CSCC[C@H](N)C(=O)O)[C@@H](O)[C@H]1O` [SAH], the entry is “activation of REase function by SAM, SIN and SAH is weak, but detectable”.
